According to patent publication US20120122860A1, “SOLID FORMS OF SULFONAMIDES AND AMINO ACIDS” (Plexxikon, Inc., priority 2009, published 2012):

Key:
[1] = Dog PK study of solid forms and formulations; format: in vivo, Beagle dogs
Protocol: Pharmacokinetic properties of various compositions prepared from the complexes may be assessed in male Sprague Dawley rats or male Beagle dogs, and compared to the properties of the free base compound. Rats are dosed daily with compound either by IV injections via surgically implanted jugular catheters or by oral gavage (PO). Each compound is prepared as a 20 mg/mL stock solution in dimethyl sulfoxide, which is further diluted to provide the dosing stock at the desired concentration for the IV or PO formulations. For IV dosing, the dosing stock is diluted into a 1:1:8 mixture of Solutol®:ethanol:water. For PO dosing, the dosing stock is diluted into 1% methylcellulose. In a cassette format, 5 compounds are diluted to 0.5 mg/mL each for IV dosing and 0.4 mg/mL each for PO dosing and dosed at 1 mg/kg (2 mL/kg) or 2 mg/kg (5 mL/kg), respectively. For IV dosed animals, tail vein blood samples are collected with lithium heparin anticoagulant at 5, 15, 30, and 60 minutes and 4, 8, and 24 hours post dosing each day. For PO dosed animals, tail vein blood samples are collected with lithium heparin anticoagulant at 30 minutes, 1, 2, 4, 8 and 24 hours post dosing each day. Dogs are dosed daily by oral capsules in a suitable formulation at 50 mg/mL. Cephalic vein blood samples are collected with lithium heparin anticoagulant at 30 minutes, 1, 2, 4, 8 and 24 hours post dosing each day. All samples are processed to plasma and frozen for later analysis of each compound by LC/MS/MS. Plasma levels as a function of time are plotted to assess the AUC (ng*hr/mL).
The arginine complex of N-[3-(5-chloro-1H-pyrrolo[2,3-b]pyridine-3-carbonyl)-2,4-difluoro-phenyl]-4-trifluoromethyl-benzenesulfonamide P-1021 was analyzed in a number of dog PK studies following the above or similar protocols. These were done primarily at Bridge Laboratories, Beijing, China, with one study done at Seventh Wave Laboratories LLC, Chesterfield, Mo. Plasma samples were analyzed to determine the plasma concentration (PPD Development, Madison, Wis.) at each time point from which the Cmax and AUC∞ were determined. In some instances, the materials are combined in the solvents indicated, and the solvent is removed by evaporation, or by spray drying where indicated. In these tables, unless indicated otherwise, the dose is mg/dog, and the Cmax/dose ((ng/mL)/(mg/kg)) and the AUC∞/dose ((ng*hr/mL)/(mg/kg)) are calculated assuming a 10 kg weight for the dogs.
This study was done at Seventh Wave, containers were provided with 13.259 g, 39.776 g or 66.301 g of this formulation and suspended in 360 mL of 1.5% Polysorbate 20 vehicle and dosed by oral gavage.
N-[3-(5-chloro-1H-pyrrolo[2,3-b]pyridine-3-carbonyl)-2,4-difluoro-phenyl]-4-trifluoromethyl-benzenesulfonamide P-1021 was analyzed in a dog PK study wherein the arginine complex of N-[3-(5-cyano-1H-pyrrolo[2,3-b]pyridine-3-carbonyl)-2,4-difluoro-phenyl]-4-trifluoromethyl-benzenesulfonamide P-1092 was also assessed.

Flt1 = Flt1 (Homo sapiens, UniProt P17948); assay: Kinase activity assay, Flt1
Flt1, sequence (P17948 27-1338): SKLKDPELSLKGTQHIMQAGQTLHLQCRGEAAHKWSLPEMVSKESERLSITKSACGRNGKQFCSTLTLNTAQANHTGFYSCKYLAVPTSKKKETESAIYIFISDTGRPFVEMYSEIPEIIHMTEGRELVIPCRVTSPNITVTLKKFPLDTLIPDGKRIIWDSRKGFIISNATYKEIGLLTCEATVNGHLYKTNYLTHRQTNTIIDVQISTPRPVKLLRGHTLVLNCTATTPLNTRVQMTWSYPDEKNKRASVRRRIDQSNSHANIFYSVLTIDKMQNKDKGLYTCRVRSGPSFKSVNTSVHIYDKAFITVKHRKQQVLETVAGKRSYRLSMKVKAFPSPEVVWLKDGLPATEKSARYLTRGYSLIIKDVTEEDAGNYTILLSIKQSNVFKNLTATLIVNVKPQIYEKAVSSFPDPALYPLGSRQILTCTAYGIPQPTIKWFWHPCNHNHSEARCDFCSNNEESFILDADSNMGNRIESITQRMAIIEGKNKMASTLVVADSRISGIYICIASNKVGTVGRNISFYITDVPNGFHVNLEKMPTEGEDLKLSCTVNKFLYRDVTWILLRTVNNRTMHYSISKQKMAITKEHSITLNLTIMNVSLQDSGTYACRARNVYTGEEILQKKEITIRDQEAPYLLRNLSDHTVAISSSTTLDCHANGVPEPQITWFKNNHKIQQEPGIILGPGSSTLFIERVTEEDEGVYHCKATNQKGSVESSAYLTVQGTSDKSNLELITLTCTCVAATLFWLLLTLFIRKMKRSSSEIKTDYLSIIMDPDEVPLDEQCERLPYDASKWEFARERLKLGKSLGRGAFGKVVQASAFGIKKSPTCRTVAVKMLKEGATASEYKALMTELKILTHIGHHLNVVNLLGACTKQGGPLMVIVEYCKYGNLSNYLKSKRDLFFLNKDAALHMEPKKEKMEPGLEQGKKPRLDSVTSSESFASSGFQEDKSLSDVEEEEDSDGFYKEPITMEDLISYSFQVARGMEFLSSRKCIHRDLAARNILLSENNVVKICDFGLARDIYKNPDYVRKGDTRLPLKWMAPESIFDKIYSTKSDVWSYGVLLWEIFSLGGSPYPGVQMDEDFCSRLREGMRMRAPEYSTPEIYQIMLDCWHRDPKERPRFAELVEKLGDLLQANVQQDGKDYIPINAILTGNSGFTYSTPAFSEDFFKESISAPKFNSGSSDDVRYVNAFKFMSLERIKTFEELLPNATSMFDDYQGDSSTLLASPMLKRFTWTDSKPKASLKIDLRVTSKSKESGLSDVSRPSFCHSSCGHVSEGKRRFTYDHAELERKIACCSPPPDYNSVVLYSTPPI

B-Raf = B-Raf (Homo sapiens, UniProt P15056); assay: Kinase activity assay, B-Raf; format: biochemical; settings: read-out: activity toward kinase B-Raf, IC50
B-Raf, sequence (P15056 whole entry): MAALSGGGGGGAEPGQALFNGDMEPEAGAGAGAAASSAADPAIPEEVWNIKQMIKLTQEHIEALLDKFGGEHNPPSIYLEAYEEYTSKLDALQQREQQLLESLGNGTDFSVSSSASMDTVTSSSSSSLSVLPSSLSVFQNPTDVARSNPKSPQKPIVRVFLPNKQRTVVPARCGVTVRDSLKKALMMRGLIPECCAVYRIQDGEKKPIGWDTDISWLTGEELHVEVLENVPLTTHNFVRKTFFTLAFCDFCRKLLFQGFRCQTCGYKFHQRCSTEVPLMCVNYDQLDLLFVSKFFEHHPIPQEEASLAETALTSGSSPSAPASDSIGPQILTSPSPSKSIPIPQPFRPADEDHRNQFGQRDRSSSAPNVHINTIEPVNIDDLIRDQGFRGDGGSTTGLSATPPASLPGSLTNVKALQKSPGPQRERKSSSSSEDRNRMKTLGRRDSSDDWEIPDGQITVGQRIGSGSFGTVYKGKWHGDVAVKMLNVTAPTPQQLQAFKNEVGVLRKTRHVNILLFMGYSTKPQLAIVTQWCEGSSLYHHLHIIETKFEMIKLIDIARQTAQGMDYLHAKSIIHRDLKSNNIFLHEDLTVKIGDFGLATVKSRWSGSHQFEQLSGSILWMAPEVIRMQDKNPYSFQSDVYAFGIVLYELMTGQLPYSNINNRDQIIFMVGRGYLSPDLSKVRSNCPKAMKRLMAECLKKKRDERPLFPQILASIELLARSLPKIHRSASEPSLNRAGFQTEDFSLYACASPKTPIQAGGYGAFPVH

B-Raf V600E = B-Raf V600E (Homo sapiens, UniProt P15056, V600E); assay: Kinase activity assay, B-Raf V600E; format: biochemical; settings: read-out: activity toward kinase B-Raf V600E, IC50
B-Raf V600E, sequence (P15056 whole entry V600E): as the sequence (P15056 whole entry) above, with V600E counted along it

Kdr = Kdr (Homo sapiens, UniProt P35968); assay: Kinase activity assay, Kdr
C-Raf = C-Raf (Homo sapiens, UniProt P04049); assay: Kinase activity assay, C-Raf
C-Raf, sequence (P04049 whole entry): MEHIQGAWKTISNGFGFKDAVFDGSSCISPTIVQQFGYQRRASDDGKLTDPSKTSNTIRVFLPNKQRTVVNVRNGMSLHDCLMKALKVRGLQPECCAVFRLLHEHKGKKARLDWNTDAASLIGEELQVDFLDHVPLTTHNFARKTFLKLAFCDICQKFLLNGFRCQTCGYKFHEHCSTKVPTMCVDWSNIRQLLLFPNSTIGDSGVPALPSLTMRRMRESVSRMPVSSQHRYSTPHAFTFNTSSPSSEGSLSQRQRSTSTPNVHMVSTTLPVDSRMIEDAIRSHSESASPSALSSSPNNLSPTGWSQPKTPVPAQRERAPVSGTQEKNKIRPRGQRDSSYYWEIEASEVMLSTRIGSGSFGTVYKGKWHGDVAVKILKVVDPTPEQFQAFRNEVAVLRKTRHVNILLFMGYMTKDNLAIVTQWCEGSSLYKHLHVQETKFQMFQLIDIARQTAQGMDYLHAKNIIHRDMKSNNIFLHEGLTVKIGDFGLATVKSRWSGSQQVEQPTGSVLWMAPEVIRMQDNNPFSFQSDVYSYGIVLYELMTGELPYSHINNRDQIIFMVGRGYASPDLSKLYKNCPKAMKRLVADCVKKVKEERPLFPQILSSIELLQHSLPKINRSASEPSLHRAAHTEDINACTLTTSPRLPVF

Src = Src (Homo sapiens, UniProt P12931); assay: Kinase activity assay, Src
Src, sequence (P12931 whole entry): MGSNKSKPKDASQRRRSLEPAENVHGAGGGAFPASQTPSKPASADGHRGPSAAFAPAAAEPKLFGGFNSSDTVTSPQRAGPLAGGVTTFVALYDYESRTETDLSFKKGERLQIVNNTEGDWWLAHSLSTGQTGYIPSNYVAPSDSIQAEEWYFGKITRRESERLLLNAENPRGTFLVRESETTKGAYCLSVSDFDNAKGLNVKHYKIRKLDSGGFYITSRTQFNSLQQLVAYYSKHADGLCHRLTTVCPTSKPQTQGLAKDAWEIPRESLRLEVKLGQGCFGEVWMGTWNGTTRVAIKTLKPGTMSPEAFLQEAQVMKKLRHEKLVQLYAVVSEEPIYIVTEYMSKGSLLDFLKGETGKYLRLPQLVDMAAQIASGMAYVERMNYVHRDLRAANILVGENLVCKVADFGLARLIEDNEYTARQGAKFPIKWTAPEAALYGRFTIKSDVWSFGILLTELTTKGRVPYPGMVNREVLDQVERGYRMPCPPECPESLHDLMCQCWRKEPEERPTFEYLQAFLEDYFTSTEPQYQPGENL

Kit = Kit (Homo sapiens, UniProt P10721); assay: Kinase activity assay, Kit
Fms = Fms (Homo sapiens, UniProt P07333); assay: Kinase activity assay, Fms
Fms, sequence (P07333 20-972): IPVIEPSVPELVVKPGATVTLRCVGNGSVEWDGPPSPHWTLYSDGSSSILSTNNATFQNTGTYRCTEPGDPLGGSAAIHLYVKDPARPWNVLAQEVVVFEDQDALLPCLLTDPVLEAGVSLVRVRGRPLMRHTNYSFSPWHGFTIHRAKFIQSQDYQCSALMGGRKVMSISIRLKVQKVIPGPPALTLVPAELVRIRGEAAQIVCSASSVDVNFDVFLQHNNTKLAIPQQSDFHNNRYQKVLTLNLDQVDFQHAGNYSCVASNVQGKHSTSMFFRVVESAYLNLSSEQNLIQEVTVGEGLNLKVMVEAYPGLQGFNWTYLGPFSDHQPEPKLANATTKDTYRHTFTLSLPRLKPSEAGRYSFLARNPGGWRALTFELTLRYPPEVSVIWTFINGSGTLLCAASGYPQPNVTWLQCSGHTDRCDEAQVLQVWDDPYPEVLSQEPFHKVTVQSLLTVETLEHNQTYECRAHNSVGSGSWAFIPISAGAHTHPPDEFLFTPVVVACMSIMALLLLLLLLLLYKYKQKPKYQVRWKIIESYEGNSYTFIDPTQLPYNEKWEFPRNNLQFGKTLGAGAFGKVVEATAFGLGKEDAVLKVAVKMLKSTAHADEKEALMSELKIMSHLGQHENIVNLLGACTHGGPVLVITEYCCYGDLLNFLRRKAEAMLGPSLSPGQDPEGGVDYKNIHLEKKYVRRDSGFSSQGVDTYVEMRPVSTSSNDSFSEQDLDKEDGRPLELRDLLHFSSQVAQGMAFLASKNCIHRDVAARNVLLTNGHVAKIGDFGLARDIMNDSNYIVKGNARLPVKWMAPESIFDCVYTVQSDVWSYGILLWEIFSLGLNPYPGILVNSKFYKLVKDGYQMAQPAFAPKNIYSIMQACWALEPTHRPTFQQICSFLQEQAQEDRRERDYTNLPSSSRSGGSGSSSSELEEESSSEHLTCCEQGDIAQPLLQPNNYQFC

[2] = Table 5B, forms of P-1021, dog, dose 150 mg/dog, 10 kg weight assumed
[3] = test articles are solid forms of P-1021, dog, oral, 100 mg/dog, calculated assuming a 10 kg weight
[4] = Table 7B, P-1021 arginine complex, dog, dose 200 mg/dog, 10 kg weight assumed
[5] = Table 7B, P-1021 arginine complex, dog, dose 400 mg/dog, 10 kg weight assumed
[6] = Table 8B, P-1021 arginine complex, dog, oral gavage, dose 249 mg/kg
[7] = Table 8B, P-1021 arginine complex, dog, oral gavage, dose 795 mg/kg
[8] = Table 8B, P-1021 arginine complex, dog, oral gavage, dose 965 mg/kg
[9] = Table 9B, dog, dose 200 mg/dog, 10 kg weight assumed
[10] = Table 9B, dog, dose 400 mg/dog, 10 kg weight assumed

| IC50 (Flt1) | IC50 (B-Raf) | IC50 (B-Raf V600E) | IC50 (Kdr) | IC50 (C-Raf) | IC50 (Fms) | Compound | other results |
| --- | --- | --- | --- | --- | --- | --- | --- |
|  |  |  |  |  |  | O=C(c1c(F)ccc(NS(=O)(=O)c2ccc(C(F)(F)F)cc2)c1F)c1c[nH]c2ncc(Cl)cc12 [Free base, N-[3-(5-chloro-1H-pyrrolo[2,3-b]pyridine-3-carbonyl)-2,4-difluoro-phenyl]-4-trifluoromethyl-benzenesulfonamide] | AUC∞/dose [1, 2]: 5,270 (ng*hr/mL)/(mg/kg); Cmax/dose [1, 2]: 482 (ng/mL)/(mg/kg); AUC∞/dose [1, 3]: 8,031 (ng*hr/mL)/(mg/kg); Cmax/dose [1, 3]: 581.3 (ng/mL)/(mg/kg) |
|  |  |  |  |  |  | O=C(c1c(F)ccc(NS(=O)(=O)c2ccc(C(F)(F)F)cc2)c1F)c1c[nH]c2ncc(Cl)cc12 [Mesylate, N-[3-(5-chloro-1H-pyrrolo[2,3-b]pyridine-3-carbonyl)-2,4-difluoro-phenyl]-4-trifluoromethyl-benzenesulfonamide] | AUC∞/dose [1, 2]: 2,849 (ng*hr/mL)/(mg/kg); Cmax/dose [1, 2]: 116 (ng/mL)/(mg/kg) |
|  |  |  |  |  |  | O=C(c1c(F)ccc(NS(=O)(=O)c2ccc(C(F)(F)F)cc2)c1F)c1c[nH]c2ncc(Cl)cc12 [P-1021 arginine complex, N-[3-(5-chloro-1H-pyrrolo[2,3-b]pyridine-3-carbonyl)-2,4-difluoro-phenyl]-4-trifluoromethyl-benzenesulfonamide] | AUC/dose ([1]; P-1021 arginine complex dosed at 400 mg per dog (Table 6B, Table 7B), typical value): greater than 12,000 (ng*hr/mL)/(mg/kg); AUC∞/dose [1, 2]: 34,693 (ng*hr/mL)/(mg/kg); Cmax/dose [1, 2]: 810 (ng/mL)/(mg/kg); AUC∞/dose [1, 4]: 22,480 (ng*hr/mL)/(mg/kg); Cmax/dose [1, 4]: 960 (ng/mL)/(mg/kg); AUC∞/dose [1, 5]: 12,120 (ng*hr/mL)/(mg/kg); Cmax/dose [1, 5]: 455 (ng/mL)/(mg/kg); AUC∞/dose [1, 6]: 11,247 (ng*hr/mL)/(mg/kg); Cmax/dose [1, 6]: 208 (ng/mL)/(mg/kg); AUC∞/dose [1, 7]: 7,457 (ng*hr/mL)/(mg/kg); Cmax/dose [1, 7]: 107 (ng/mL)/(mg/kg); AUC∞/dose [1, 8]: 3,883 (ng*hr/mL)/(mg/kg); Cmax/dose [1, 8]: 178 (ng/mL)/(mg/kg); AUC∞/dose [1, 3]: 16,850 (ng*hr/mL)/(mg/kg); Cmax/dose [1, 3]: 830.5 (ng/mL)/(mg/kg) |
|  |  |  |  |  |  | O=C(c1c(F)ccc(NS(=O)(=O)c2ccc(C(F)(F)F)cc2)c1F)c1c[nH]c2ncc(Cl)cc12 [P-1021, N-[3-(5-chloro-1H-pyrrolo[2,3-b]pyridine-3-carbonyl)-2,4-difluoro-phenyl]-4-trifluoromethyl-benzenesulfonamide] | Cmax and AUC / exposure, comparison in words ([1]; dog PK studies, arginine complex): favorable Cmax and AUC compared to free base and other formulations |
|  |  |  |  |  |  | N#Cc1cnc2[nH]cc(C(=O)c3c(F)ccc(NS(=O)(=O)c4ccc(C(F)(F)F)cc4)c3F)c2c1 [P-1092 arginine complex, N-[3-(5-cyano-1H-pyrrolo[2,3-b]pyridine-3-carbonyl)-2,4-difluoro-phenyl]-4-trifluoromethyl-benzenesulfonamide] | AUC∞/dose [1, 9]: 11,720 (ng*hr/mL)/(mg/kg); Cmax/dose [1, 9]: 550 (ng/mL)/(mg/kg); AUC∞/dose [1, 10]: 12,580 (ng*hr/mL)/(mg/kg); Cmax/dose [1, 10]: 617.5 (ng/mL)/(mg/kg) |
| ≤ 10 µM | ≤ 10 µM | ≤ 10 µM | ≤ 10 µM | ≤ 10 µM |  | CCCS(=O)(=O)Nc1ccc(F)c(C(O)c2c[nH]c3ncc(-c4ccc(C(=O)NCC)nc4)cc23)c1F (stereo not shown) [P-2150, 5-(3-{[2,6-Difluoro-3-(propane-1-sulfonylamino)-phenyl]-hydroxy-methyl}-1H-pyrrolo[2,3-b]pyridin-5-yl)-pyridine-2-carboxylic acid ethylamide] | IC50 (Src): ≤ 10 µM |
| ≤ 10 µM | ≤ 10 µM | ≤ 10 µM | ≤ 10 µM | ≤ 10 µM |  | CCCS(=O)(=O)Nc1ccc(F)c(C(=O)c2c[nH]c3ncc(-c4cncnc4)cc23)c1F [P-2162, Propane-1-sulfonic acid [2,4-difluoro-3-(5-pyrimidin-5-yl-1H-pyrrolo[2,3-b]pyridine-3-carbonyl)-phenyl]-amide] | IC50 (Src): ≤ 10 µM |
| ≤ 10 µM | ≤ 10 µM | ≤ 10 µM | ≤ 10 µM | ≤ 10 µM | ≤ 10 µM | CCCS(=O)(=O)Nc1ccc(F)c(C(=O)c2c[nH]c3ncc(C(=O)NC)cc23)c1F [P-2200, 3-[2,6-Difluoro-3-(propane-1-sulfonylamino)-benzoyl]-1H-pyrrolo[2,3-b]pyridine-5-carboxylic acid methylamide] | IC50 (Kit): ≤ 10 µM |
| ≤ 10 µM | ≤ 10 µM | ≤ 10 µM | ≤ 10 µM | ≤ 10 µM | ≤ 10 µM | CCCS(=O)(=O)Nc1ccc(F)c(C(=O)c2c[nH]c3ncc(C(=O)NC4CC4)cc23)c1F [P-2201, 3-[2,6-Difluoro-3-(propane-1-sulfonylamino)-benzoyl]-1H-pyrrolo[2,3-b]pyridine-5-carboxylic acid cyclopropylamide] | IC50 (Kit): ≤ 10 µM |
| ≤ 10 µM | ≤ 10 µM | ≤ 10 µM | ≤ 10 µM |  | ≤ 10 µM | CCCS(=O)(=O)Nc1ccc(F)c(C(=O)c2c[nH]c3ncc(-c4cnc(OCCCN(C)C)nc4)cc23)c1F [P-2203, Propane-1-sulfonic acid (3-{5-[2-(3-dimethylamino-propoxy)-pyrimidin-5-yl]-1H-pyrrolo[2,3-b]pyridine-3-carbonyl}-2,4-difluoro-phenyl)-amide] | IC50 (Kit): ≤ 10 µM |
| ≤ 10 µM | ≤ 10 µM | ≤ 10 µM | ≤ 10 µM | ≤ 10 µM |  | CCCS(=O)(=O)Nc1ccc(F)c(C(=O)c2c[nH]c3ncc(C(=O)NCCO)cc23)c1F [P-2217, 3-[2,6-Difluoro-3-(propane-1-sulfonylamino)-benzoyl]-1H-pyrrolo[2,3-b]pyridine-5-carboxylic acid (2-hydroxy-ethyl)-amide] | IC50 (Src): ≤ 10 µM |
| ≤ 10 µM | ≤ 10 µM | ≤ 10 µM | ≤ 10 µM | ≤ 10 µM | ≤ 10 µM | CCCS(=O)(=O)Nc1ccc(F)c(C(=O)c2c[nH]c3ncc(-c4ccc(S(=O)(=O)CC)cc4)cc23)c1F [P-2218, Propane-1-sulfonic acid {3-[5-(4-ethanesulfonyl-phenyl)-1H-pyrrolo[2,3-b]pyridine-3-carbonyl]-2,4-difluoro-phenyl}-amide] | IC50 (Kit): ≤ 10 µM |
| ≤ 10 µM | ≤ 10 µM | ≤ 10 µM | ≤ 10 µM | ≤ 10 µM | ≤ 10 µM | CCCS(=O)(=O)Nc1cccc(C(=O)c2c[nH]c3ncc(C(=O)OC)cc23)c1F [P-2404, 3-[2-Fluoro-3-(propane-1-sulfonylamino)-benzoyl]-1H-pyrrolo[2,3-b]pyridine-5-carboxylic acid methyl ester] |  |
|  |  |  |  |  |  | O=C(c1c(F)ccc(NS(=O)(=O)c2ccc(C(F)(F)F)cc2)c1F)c1c[nH]c2ncc(Cl)cc12 [Sulfate, N-[3-(5-chloro-1H-pyrrolo[2,3-b]pyridine-3-carbonyl)-2,4-difluoro-phenyl]-4-trifluoromethyl-benzenesulfonamide] | AUC∞/dose [1, 3]: 5,067 (ng*hr/mL)/(mg/kg); Cmax/dose [1, 3]: 181.5 (ng/mL)/(mg/kg) |
